Legend:
Assay type in all cases: in vivo, Swiss albino mice
DAL [1] = assay: Dead cell count of DAL ascitic fluid in mice
Experimental: (§1) The extracts used were in the form of suspension with tween-20 (one part by volume) and distilled water (two parts by volume). The prepared extracts were also used for further studies. Animals used for studies were Swiss albino mice. Six experiments were carried for each plant extract.
(§2) After development of tumor the drug treatment was given on the 9th day and the 18th day post tumor inoculation. The peritoneal fluid was collected once on the 11th day and 20th day from each mouse and the following parameters were examined in antitumor assessment:
Ascitic fluid for cell cytology, specifically dead cell count and histopathology.
(§3) Statistical analysis: The data for anti-tumor activity was analyzed by one-way ANOVA followed by Dunnett's ‘t’ test. P<0.05 was considered statistically significant.

DAL [2] = assay: Body weight (tumor volume) of DAL-bearing mice; conditions: for body weight: mean of six experiments
Experimental: as §1, §2
Body weight (tumor volume). All parameters were examined with standard procedures.

DAL [3] = assay: Hematological parameters in DAL-bearing mice; conditions: 5-FU 12.5 mg/kg p.o., extracts 300 mg/kg p.o.
Experimental: The extracts used were in the form of suspension with tween-20 (one part by volume) and distilled water (two parts by volume). The prepared extracts were also used for further studies. Animals used for studies were Swiss albino mice. Six experiments were carried for each plant extract. After development of tumor the drug treatment was given on the 9th day and the 18th day post tumor inoculation. […] Hematological parameters, such as WBC, RBC, Hb, differential Leucocyte count; Statistical analysis: The data for anti-tumor activity was analyzed by one-way ANOVA followed by Dunnett's ‘t’ test. P<0.05 was considered statistically significant.

DAL [4] = assay: Mean survival time (MST) in DAL-bearing mice
Experimental: as §1, §2
Mean Survival time (MST);
as §3

Structure (SMILES): O=c1[nH]cc(F)c(=O)[nH]1 [5-FU, 5-Fluorouracil]
- % of dead cells (DAL [1]; 11th day): 35%
- % protection against tumor (DAL [1]; 11th day): 52%
- % of dead cells (DAL [1]; 20th day): 51%
- % protection against tumor (DAL [1]; 20th day): 54.54%
- % increase in body weight on 20th day post-tumor inoculation (DAL [2]; 20th day post-tumor inoculation): 32.08%
- body weight (DAL [2]; day 9 post tumor inoculation): 22.33 grams
- body weight (DAL [2]; day 10 post tumor inoculation): 22.33 grams
- body weight (DAL [2]; day 11 post tumor inoculation): 22.66 grams
- body weight (DAL [2]; day 12 post tumor inoculation): 23 grams
- body weight (DAL [2]; day 13 post tumor inoculation): 26.33 grams
- body weight (DAL [2]; day 14 post tumor inoculation): 27 grams
- body weight (DAL [2]; day 15 post tumor inoculation): 28.66 grams
- body weight (DAL [2]; day 18 post tumor inoculation): 30 grams
- body weight (DAL [2]; day 20 post tumor inoculation): 30 grams
- body weight (DAL [2]; day 21 post tumor inoculation): 30 grams
- body weight (DAL [2]; day 24 post tumor inoculation): 30 grams
- Hb g/dl ± SEM (DAL [3]; Day 11): 5.8 ± 0.98 g/dL
- Lymphocytes ± SEM (DAL [3]; Day 11): 48 ± 0.41
- Monocytes (DAL [3]; Day 11): 2
- Neutrophils ± SEM (DAL [3]; Day 11): 56 ± 0.82
- RBC × 10^6 ± SEM (DAL [3]; Day 11): 2.20 ± 0.08 × 10^6
- Hb g/dl ± SEM (DAL [3]; Day 20): 7.2 ± 0.04 g/dL
- Lymphocytes ± SEM (DAL [3]; Day 20): 54.98 ± 0.81
- Monocytes (DAL [3]; Day 20): 2
- Neutrophils ± SEM (DAL [3]; Day 20): 34.98 ± 0.03
- RBC × 10^6 ± SEM (DAL [3]; Day 20): 2.61 ± 0.03 × 10^6
- WBC ± SEM (DAL [3]; Day 20): 11,600 ± 2.03
- No. of Days Alive ± SEM (DAL [4]; DAL-bearing mice): 26 ± 0.24 days
- Mean Survival time (%) (DAL [4]; tumor control (DAL) = 100): 110%
